Laboratory results: patent US20240383955A1, “MODIFIED ANTIMICROBIAL PEPTIDES” (priority 2021, published 2024)
In brackets after ≈: the same amount, converted by molar mass. Square brackets hold non-standard residues; d marks the D form. Peptide text beside a SMILES is read from it. Dab = NCC[C@H](N)C(=O)O

Key:
C. krusei = experiment: MIC by CLSI M27/M38 methodology; format: cell-based; conditions: C. krusei isolate ATCC 6258; Table 8
P. variotii = experiment: MIC by CLSI M27/M38 methodology; format: cell-based; conditions: P. variotii isolate MYA-363; Table 8

| Compound | MIC, 100% (C. krusei) | MIC, 100% (P. variotii) |
| --- | --- | --- |
| NCC[C@H](NC(=O)CNC(=O)[C@@H](N)Cc1ccccc1)C(=O)N[C@@H](CS)C(=O)N[C@@H](CCN)C(=O)NCC(=O)N[C@@H](Cc1ccccc1)C(=O)N[C@@H](CCN)C(=O)N[C@@H](CCN)C(=O)N[C@@H](CCN)C(=O)N[C@@H](CS)C(=O)N[C@@H](Cc1ccccc1)C(=O)N[C@@H](CS)C(=O)N[C@@H](Cc1c[nH]c2ccccc12)C(=O)N[C@@H](CCN)C(=O)N[C@@H](Cc1c[nH]c2ccccc12)C(=O)N[C@@H](CS)C(N)=O [GMA4C_V5A, FG(Dab)C(Dab)GF(Dab)(Dab)(Dab)CFCW(Dab)WC-NH2] (H-FG[Dab]C[Dab]GF[Dab][Dab][Dab]CFCW[Dab]WC-NH2; N-terminus assumed) | 8 mg/L (≈ 4.08 µM) | 4 mg/L (≈ 2.04 µM) |
| N=C(N)NCCC[C@H](NC(=O)CNC(=O)[C@@H](N)Cc1ccccc1)C(=O)N[C@@H](CS)C(=O)N[C@@H](CCCNC(=N)N)C(=O)NCC(=O)N[C@@H](Cc1ccccc1)C(=O)N[C@@H](CCCNC(=N)N)C(=O)N[C@@H](CCCNC(=N)N)C(=O)N[C@@H](CCCNC(=N)N)C(=O)N[C@@H](CS)C(=O)N[C@@H](Cc1ccccc1)C(=O)N[C@@H](CS)C(=O)N[C@@H](Cc1c[nH]c2ccccc12)C(=O)N[C@@H](CCCNC(=N)N)C(=O)N[C@@H](Cc1c[nH]c2ccccc12)C(=O)N[C@@H](CS)C(N)=O [GMA4C_V4A] (H-FGRCRGFRRRCFCWRWC-NH2; N-terminus assumed) | 8 mg/L (≈ 3.49 µM) | 8 mg/L (≈ 3.49 µM) |
| CC[C@H](C)[C@H](NC(=O)[C@H](CCCNC(=N)N)NC(=O)[C@@H](NC(=O)[C@H](CS)NC(=O)[C@H](Cc1ccccc1)NC(=O)[C@H](CS)NC(=O)[C@H](CCCNC(=N)N)NC(=O)[C@H](CCCNC(=N)N)NC(=O)[C@H](CCCNC(=N)N)NC(=O)[C@H](Cc1ccccc1)NC(=O)CNC(=O)[C@H](CCCNC(=N)N)NC(=O)[C@H](CS)NC(=O)[C@H](CCCNC(=N)N)NC(=O)CNC(=O)CN)[C@@H](C)O)C(=O)N[C@@H](CS)C(N)=O [GMA4C_V2A] (H-GGRCRGFRRRCFCTRIC-NH2; N-terminus assumed) | 16 mg/L (≈ 7.82 µM) | 8 mg/L (≈ 3.91 µM) |
